From patent US20180200172A1, “REAGENTS AND METHODS FOR WHITENING TEETH” (UNIVERSITY OF WASHINGTON THROUGH ITS CENTER FOR …, priority 2015, published 2018)

How the values were obtained:
[1] = Kinetic profile of mineral formation; conditions: fast = immediate mineral formation; slow = about 5 minutes to about 1 hour
Procedure: Fast kinetics refers to fast mineral formation, such as immediate mineral formation, while slow mineral formation refers to mineral formation over a period of time, such as about 5 minutes to about 1 hour. In some embodiments, a first biomineralizing peptide having faster kinetics can be used in combination with a second biomineralizing peptide having slower kinetics.

[2] = In vitro re-mineralization of tea-stained rat tooth with peptide solution; conditions: peptide 10 min 37° C., then CaCl2/KH2PO4 16 hours 37° C., control in Tris buffer
Procedure: Rat teeth (molars) were obtained from sacrificed rats (for example, Sprague Dawley rats, age 3 weeks or older) from animal facility, collected, and stored in 100% alcohol. Prior to the re-mineralization experiments the teeth were stored in 1% bleach for 24 hours. […] The teeth were then dried in an incubator in air at 37° C. for 3-6 hours to produce dry surface. The root site and section the crown were removed vertically using a diamond blade. Pictures were taken with camera attached to optical microscope. Exposed dentine sites in the one half of the sectioned tooth were etched with 35% phosphoric acid (Ultraetch™) for 60 seconds (to facilitate the stain intake). The etching gel was removed by rinsing the sample with distilled water for 3 minutes. The staining solution was prepared by boiling 2 g of tea in 100 ml of deionized water for 5 minutes, and then cooled down to room temperature and filtered. The tooth sample was soaked in the staining solution and incubated at 37° C. at 150 rpm for 24 hours. The tooth was removed from the staining solution and sonicated for 30 seconds in deionized water (sonic bath) to remove the excess amount of tea particles attached to tooth extrinsically. The one half of the sectioned tooth was cut vertically into half again to form two quarter sections of the tooth. A second set of pictures were taken with camera attached to optical microscope. […]

[3] = Solution mineralization approach on tetracycline-stained human teeth; line profile analysis (Mean Pixel Intensity); conditions: for Mean Pixel Intensity: shADP5 0.8 mM, tetracycline-stained
Description: Human teeth, donated by the University of Washington School of Dentistry (Seattle, Wash., USA), were selected for their clean, smooth surfaces. The teeth were sterilized in bleach, cut on a diamond blade to remove the root, and halved. A thin layer of the enamel surface was then cut on one of the halves parallel to the previous cut, such that the dentin layer could be seen without completely removing the enamel on the tooth. This allowed imaging of the enamel surfaces after the mineralization experiment without the problem of surface reflection encountered in previous experiments, in addition to a more parallel surface from which to compare the brightness or whiteness results. The cut enamel side of the tooth sample was then sonicated in DI water and polished on diamond slurry smooth out the surface for imaging. The sample was then cut into quarters, with the lower half selected for a tetracycline experiment because of the even distribution of dentin coloring in the lower quarters of the tooth sample. The samples were then stained in 10 mg/mL tetracycline solution for five days.
During mineralization, using a 96-well plate, one of the stained halves was stored in 1200 μL Tris (24 mM) as a negative control, and the experimental sample was incubated in 150 μL shADP5 (0.8 mM) at 37° C. for 10 minutes. The experimental sample was then rinsed of excess peptide with deionized water and then stored in 600 μL CaCl2 (9.6 mM), to which 600 μL monobasic KH2PO4 (5.76 mM) was added. The well plate containing both the control and experimental samples was then stored at 37° C. for about 24 hours for mineralization to occur on the treated stained tooth sample.
[…] After 27 rounds of mineralization on the experimental sample, the tooth was inspected for changes in brightness qualitatively. The stained negative control was polished to expose the original enamel stain in order to compare the whitening effect of the peptide mineralization.

[4] = In vitro re-mineralization of tea-stained human tooth with peptide solution; line profile analysis (Mean Pixel Intensity, ImageJ)
Procedure: A caries-free human tooth was sterilized in 1% bleach solution for 24 hours then removed and vigorously rinsed with deionized water. The root site was removed and the crown sectioned vertically using a diamond blade. Pictures were taken with a camera attached to an optical microscope.
The exposed dentine sites were etched with 35% phosphoric acid (Ultraetch™) for 60 seconds (to facilitate the stain intake). The etching gel was removed by rinsing the sample with distilled water for 3 minutes. The staining solution was prepared by boiling 2 g of tea in 100 ml of deionized water for 5 minutes, which was then cooled down to room temperature and filtered. The tooth was soaked in the staining solution and incubated at 37° C. at 150 rpm for 24 hours. The tooth was then removed from the staining solution and sonicated for 30 seconds in deionized water (sonic bath) to remove the excess amount of tea particles attached to tooth extrinsically. The sectioned tooth was cut vertically in half again to form two quarter sections of the tooth. FIGS. 2(a) to 2(g) show various sections of the tooth after the staining. […] Figures (b), (c) and (d) show different views of the left quarter of the tooth that was sectioned from the tooth. Figures (e), (f) and (g) show different views of the right quarter of the tooth that was sectioned from the tooth. As can be observed from FIGS. 2(a) to 2(g), brown stains from the staining solution were formed on the surface and below the surface of the tooth. The left quarter of the tooth was stored in 24 mM Tris Buffer (pH: 7.4) for control and the right quarter of the tooth (test tooth) was used for in vitro re-mineralization. The test tooth was submerged into peptide solution (600 μl) containing a mineralization polypeptide in a 48 well plate and incubated for 10 minutes at 37° C. After incubation, the tooth was removed and placed into to a new well. A mineralization solution of 400 μl of 9.6 mM CaCl2 and 400 μl of 5.6 mM KH2PO4 was added and quickly mixed by pipetting the solution up and down. […]

[5] = Solution mineralization approach, 25 rounds, colour measured with Minolta Chroma Meter CR-200; conditions: unstained sectioned human tooth, peptide 10 minutes, calcium/phosphate ions 2 hours 37° C.
Description: The root site of an extracted human tooth was removed and the crown portion of the tooth was sectioned vertically into half. A thin layer of enamel was removed from one half of the sectioned tooth such that the dentin layer is exposed without completely removing the enamel on the tooth. This allowed imaging of the enamel surfaces after the mineralization experiment without the problem of surface reflection, and provides a more parallel surface from which to compare the whiteness results. The sectioned tooth was fixed onto a glass slide with epoxy. Initial color measurements of each of the four sides of the sectioned tooth was obtained using a Minolta Chroma Meter CR-200 (Konica Minolta, Tokyo, Japan), according to manufacturer instructions, using a white background and a black background. The sectioned tooth was incubated in a mineralization polypeptide solution for 10 minutes at 37° C. and then in a solution with calcium ions and phosphate ions for 2 hours at 37° C. Color measurements of each of the four sides of the sample were taken as described initially. The sectioned was rinsed with deionized water and the remineralization process (incubation in polypeptide solution, incubation in solution of ion sources, and rinsing with deionized water) was repeated for a total of 25 rounds. The mineralization polypeptide was SYENSHSQAINVDRT (shADP5; SEQ ID NO:16).

| Substance | kinetic profile (mineral formation) [1] | colour of treated tooth quarter versus control [2] | Mean Pixel Intensity ([3]; After 3 rounds of remineralization, Bar B in FIG. 6) | Mean Pixel Intensity ([3]; After 4 rounds of remineralization, Bar C in FIG. 6) | Mean Pixel Intensity ([3]; After 5 rounds of remineralization, Bar D in FIG. 6) | Mean Pixel Intensity ([3]; After 7 rounds of remineralization, Bar E in FIG. 6) | whiteness of the stained tooth ([3]; repeated rounds of remineralization (3 to 7 rounds)) | Mean Pixel Intensity ([4]; Whitened (stained and remineralized), 0 = completely black, 100 = completely white, Bar C in FIG. 4) | whiteness versus original tooth and stained tooth ([4]; after staining and remineralization, from MPI in FIG. 4) | colour of treated tooth quarter versus control ([4]; tea-stained human tooth, peptide 10 minutes 37° C., then CaCl2/KH2PO4 16 hours 37° C., control in Tris buffer) | whiteness of the tooth enamel [5] |
| --- | --- | --- | --- | --- | --- | --- | --- | --- | --- | --- | --- |
| (HPP(S/T)HTLQPHHH(L/I)PVVPAQQPV (A/I)PQQPMMPVPG(H/Q)HSMTP(T/I)QH)1-10 [ADP7] | slow kinetic profile |  |  |  |  |  |  |  |  |  |  |
| (PGYIN(L/F)SYE(K/N)SHSQAIN(T/V)DRTA)1-10 [ADP5] | fast kinetic profile |  |  |  |  |  |  |  |  |  |  |
| SYENSHSQAINVDRT [shADP5, shortened amelogenin derived polypeptide ADP5] |  | lighter in color than the control | 69.47 ± 2.96 | 70.11 ± 2.92 | 70.79 ± 1.96 | 74.47 ± 2.13 | whiteness of the stained tooth improves with repeated rounds of remineralization | 96.21 ± 2.39 | improved whiteness over the original tooth and the stained tooth | lighter in color than the left quarter (control) | whiteness of the tooth enamel improved with each round of remineralization |
